Here are results for nine compounds from patent US9802941B2, “Compounds and methods for inhibiting histone demethylases” (Gilead Sciences, Inc., priority 2014, dated 2017).

Molecules are shown by their SMILES. Where two headings read alike, the source gives them in different places.

Common to all, as to assay type: biochemical
One experiment addresses T1, KDM5B (PLU-1) (Homo sapiens, UniProt Q9UGL1).
T1 construct: BRIC; 1-809; E. coli; host or cells: E. coli
T1 sequence (Q9UGL1 1-809): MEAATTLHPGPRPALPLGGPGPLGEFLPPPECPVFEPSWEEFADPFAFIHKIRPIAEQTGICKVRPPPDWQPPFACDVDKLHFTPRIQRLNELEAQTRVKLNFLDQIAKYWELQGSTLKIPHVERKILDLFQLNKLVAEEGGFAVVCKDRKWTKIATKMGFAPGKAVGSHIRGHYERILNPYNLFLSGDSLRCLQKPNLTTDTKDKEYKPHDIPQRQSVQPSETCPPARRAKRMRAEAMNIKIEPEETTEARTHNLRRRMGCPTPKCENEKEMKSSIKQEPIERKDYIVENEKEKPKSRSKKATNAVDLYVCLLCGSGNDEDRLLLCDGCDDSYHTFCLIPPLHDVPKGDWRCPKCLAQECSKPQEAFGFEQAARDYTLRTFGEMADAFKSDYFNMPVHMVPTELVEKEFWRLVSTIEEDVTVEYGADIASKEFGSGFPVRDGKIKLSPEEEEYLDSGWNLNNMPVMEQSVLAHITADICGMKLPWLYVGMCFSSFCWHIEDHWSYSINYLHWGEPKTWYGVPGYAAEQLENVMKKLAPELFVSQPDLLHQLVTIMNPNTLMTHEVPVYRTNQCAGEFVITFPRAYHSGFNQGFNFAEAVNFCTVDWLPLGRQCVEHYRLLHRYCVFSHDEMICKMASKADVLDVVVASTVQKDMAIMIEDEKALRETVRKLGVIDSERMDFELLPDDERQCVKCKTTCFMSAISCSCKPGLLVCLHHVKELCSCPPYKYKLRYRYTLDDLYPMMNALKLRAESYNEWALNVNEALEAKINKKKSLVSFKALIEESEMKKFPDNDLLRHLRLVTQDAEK
As to the kind of experiment: Histone lysine demethylase AlphaLISA assay, KDM5B. In outline: (§1)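 In vitro demethylase inhibition measured by AlphaLISA. Enzymes preincubated with compound 10 minutes in 50 mM Hepes (pH 7.4-8.0), 0.003-0.01% Tween-20, 0.1% BSA, 5 μM (NH4)2Fe(SO4)2 before substrate addition at room temperature.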
(Bead proximity is the source of the signal in Alpha formats.)

In the next experiment the target is T2, PHF8 (KDM7) (Homo sapiens, UniProt Q9UPP1).
T2 construct: KDM7 (PHF8); BRIC; 1-1322; Bac
As to the kind of experiment: Histone lysine demethylase AlphaLISA assay, PHF8. In outline: as §1

The next experiment concerns the target T3, KDM4C (JMJD2C) (Homo sapiens, UniProt Q9H3R0).
T3 construct: KDM4C; BRIC, Denmark; 1-349; E. coli; host or cells: E. coli
T3 sequence (Q9H3R0 1-349): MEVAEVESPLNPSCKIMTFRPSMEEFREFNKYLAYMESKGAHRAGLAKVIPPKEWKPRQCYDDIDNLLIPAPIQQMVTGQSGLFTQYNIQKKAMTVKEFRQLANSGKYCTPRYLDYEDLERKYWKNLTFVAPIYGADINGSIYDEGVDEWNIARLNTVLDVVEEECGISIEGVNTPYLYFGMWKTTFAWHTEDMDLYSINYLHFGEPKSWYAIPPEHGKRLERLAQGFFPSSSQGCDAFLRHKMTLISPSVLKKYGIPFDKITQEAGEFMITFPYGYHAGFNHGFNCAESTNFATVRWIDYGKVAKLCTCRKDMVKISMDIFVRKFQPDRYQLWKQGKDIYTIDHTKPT
Briefly: Histone lysine demethylase AlphaLISA assay, KDM4C. In outline:
as §1

A further experiment deals with T4, KDM6A (UTX) (Homo sapiens, UniProt O15550).
T4 construct: KDM6A (UTX); BRIC; 919-1401; E. coli; host or cells: E. coli
As to the kind of experiment: Histone lysine demethylase AlphaLISA assay, KDM6A. As for the experimental part: The compounds of the application, or a pharmaceutically acceptable salt, or solvate, or prodrug thereof, are tested in an in vitro AlphaLISA assay. Enzymes are dissolved in enzyme buffer and incubated before they are added to DMSO solutions of compounds of the application, or a pharmaceutically acceptable salt, or solvate, or prodrug thereof, in enzyme buffer. The reaction mixture is then incubated for an additional period of time before substrate solution is added and then the resulting mixture again incubated. Acceptor beads and suspended Epigenetic Buffer from stock are added and the suspension is again incubated before a suspension of streptavidin donor beads in Epigenetic Buffer is added. After an additional period of incubation, the plates are read.
The ability of compounds of the application to inhibit the histone lysine demethylase activity in vitro of different enzymes was determined.
The reaction mixture was incubated for another 10 minutes before 5 μL of substrate solution was added and the resulting mixture was then incubated at room temperature. […] After incubation at room temperature in the dark, the plates were read.
Enzyme Buffer: 50 mM Hepes (pH 7.4-8.0), 0.003-0.01% Tween-20, 0.1% BSA; 5 μM (NH4)2Fe(SO4)2.

In a further experiment the target is T5, KDM2B (FBXL10) (Homo sapiens, UniProt Q8NHM5).
T5 construct: KDM2B; BPS,; 1-650; Bac; purchased BPS Bioscience, US; host or cells: baculovirus system
T5 sequence (Q8NHM5 1-650): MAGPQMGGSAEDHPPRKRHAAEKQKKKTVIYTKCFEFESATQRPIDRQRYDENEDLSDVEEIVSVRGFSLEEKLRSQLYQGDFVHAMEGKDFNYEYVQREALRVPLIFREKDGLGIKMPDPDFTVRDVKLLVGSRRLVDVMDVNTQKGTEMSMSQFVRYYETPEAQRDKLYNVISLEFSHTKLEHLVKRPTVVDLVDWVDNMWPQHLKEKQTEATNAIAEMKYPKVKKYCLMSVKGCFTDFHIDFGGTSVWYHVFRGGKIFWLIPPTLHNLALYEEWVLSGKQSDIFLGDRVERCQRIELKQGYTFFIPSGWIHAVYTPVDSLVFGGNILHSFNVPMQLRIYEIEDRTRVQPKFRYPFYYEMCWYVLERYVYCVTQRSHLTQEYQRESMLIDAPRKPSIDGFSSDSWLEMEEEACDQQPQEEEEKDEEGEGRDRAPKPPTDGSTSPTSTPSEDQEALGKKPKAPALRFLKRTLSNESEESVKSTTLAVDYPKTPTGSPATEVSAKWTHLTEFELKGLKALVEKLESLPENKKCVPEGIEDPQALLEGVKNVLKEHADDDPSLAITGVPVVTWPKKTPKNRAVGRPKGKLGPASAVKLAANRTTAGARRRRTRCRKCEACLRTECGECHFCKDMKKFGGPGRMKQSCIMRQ
As to the kind of experiment: Histone lysine demethylase AlphaLISA assay, KDM2B. In outline: as §1

The mark [1] stands for this setting: AlphaLISA assay, read-out: HDME Inhibition KDM5B (IC50).
Where [2] appears, read: AlphaLISA, in vitro, read-out: HDME Inhibition KDM5B.
[3] abbreviates: AlphaLISA, in vitro, read-out: HDME Inhibition PHF8.
Setting [4] is: AlphaLISA assay, read-out: HDME Inhibition KDM4C (IC50).
Where [5] appears, read: AlphaLISA, in vitro, read-out: HDME Inhibition KDM4C.
[6] abbreviates: AlphaLISA assay, read-out: HDME Inhibition KDM6A (IC50).
Where [7] appears, read: AlphaLISA, in vitro, read-out: HDME Inhibition KDM6A.
The mark [8] stands for this setting: AlphaLISA, in vitro, read-out: HDME Inhibition KDM2B.
Setting [9] is: AlphaLISA assay, read-out: HDME Inhibition PHF8 (IC50).

T4 sequence (O15550 919-1401): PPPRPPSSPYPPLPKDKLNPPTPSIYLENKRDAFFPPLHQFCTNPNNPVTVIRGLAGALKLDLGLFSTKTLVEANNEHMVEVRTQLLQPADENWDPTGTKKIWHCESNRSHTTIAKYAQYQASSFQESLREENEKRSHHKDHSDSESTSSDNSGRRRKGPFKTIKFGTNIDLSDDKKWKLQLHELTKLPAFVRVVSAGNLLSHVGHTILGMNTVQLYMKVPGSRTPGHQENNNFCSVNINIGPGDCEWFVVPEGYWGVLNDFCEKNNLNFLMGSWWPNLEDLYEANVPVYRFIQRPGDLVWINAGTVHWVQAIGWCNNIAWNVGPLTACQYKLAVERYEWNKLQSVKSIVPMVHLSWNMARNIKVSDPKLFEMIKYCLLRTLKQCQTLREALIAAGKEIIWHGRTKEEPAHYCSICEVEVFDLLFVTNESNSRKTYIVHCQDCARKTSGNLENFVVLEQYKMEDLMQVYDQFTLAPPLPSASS
T2 sequence (Q9UPP1 37-440 limits assumed): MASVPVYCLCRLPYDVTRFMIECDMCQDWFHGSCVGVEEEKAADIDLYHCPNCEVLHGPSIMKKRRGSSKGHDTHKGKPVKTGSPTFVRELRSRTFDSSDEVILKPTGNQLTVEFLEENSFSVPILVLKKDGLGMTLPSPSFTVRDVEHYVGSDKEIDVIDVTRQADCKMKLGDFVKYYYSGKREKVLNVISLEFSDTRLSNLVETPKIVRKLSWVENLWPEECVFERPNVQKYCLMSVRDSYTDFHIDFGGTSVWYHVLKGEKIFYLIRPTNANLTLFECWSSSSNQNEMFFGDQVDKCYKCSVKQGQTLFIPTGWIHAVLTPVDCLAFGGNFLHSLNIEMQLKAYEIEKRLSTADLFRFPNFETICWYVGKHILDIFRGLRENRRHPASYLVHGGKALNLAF

Turning to `C/C=C\c1cnc(CNCc2cc(C(=O)O)cc(C)n2)n1Cc1ccc(F)cc1` [Compound 35, 2-{[({1-[(4-fluorophenyl)methyl]-5-[(1Z)-prop-1-en-1-yl]-1H-imidazol-2-yl}methyl)amino]methyl}-6-methylpyridine-4-carboxylic acid], the IC50 at KDM5B (PLU-1) (setting [1]) is above 10 µM; at KDM5B (PLU-1) (setting [2]), above 10 µM; at PHF8 (KDM7) (setting [3]), 0.437 µM; on KDM4C (JMJD2C) (setting [4]), above 10 µM; at KDM4C (JMJD2C) (setting [5]), above 10 µM; at KDM6A (UTX) (setting [6]), above 10 µM. Further, the IC50 is above 10 µM on KDM6A (UTX) (setting [7]) and 0.117 µM at KDM2B (FBXL10) (setting [8]).
As to `CCCCCc1cccnc1CCNCc1cc(C(=O)O)cc(C)n1` [Compound 16, 2-methyl-6-({[2-(3-pentylpyridin-2-yl)ethyl]amino}methyl)pyridine-4-carboxylic acid], the IC50 at KDM5B (PLU-1) (setting [1]) is above 10 µM; at KDM5B (PLU-1) (setting [2]) it was above 10 µM; on PHF8 (KDM7) (setting [3]), 3.49 µM; at KDM4C (JMJD2C) (setting [4]), above 10 µM; at KDM4C (JMJD2C) (setting [5]) it was above 10 µM; on KDM6A (UTX) (setting [6]), above 9 µM. Besides, the IC50 on KDM6A (UTX) (setting [7]) is above 9 µM; on KDM2B (FBXL10) (AlphaLISA assay, read-out: HDME Inhibition KDM2B (IC50)), above 6.8 µM; on KDM2B (FBXL10) (setting [8]), above 6.8 µM.
On to `CCC(C)Cc1cnc(CNCc2cc(C(=O)O)cc(C)n2)n1Cc1ccc(F)cc1` (stereo not drawn) [Compound 30, 2-{[({1-[(4-fluorophenyl)methyl]-5-(2-methylbutyl)-1H-imidazol-2-yl}methyl)amino]methyl}-6-methylpyridine-4-carboxylic acid], for which the IC50 on KDM5B (PLU-1) (setting [1]) was above 10 µM; on KDM5B (PLU-1) (setting [2]), above 10 µM; at PHF8 (KDM7) (setting [3]), 2.22 µM; at KDM4C (JMJD2C) (setting [4]) it was above 10 µM; at KDM4C (JMJD2C) (setting [5]), above 10 µM; at KDM6A (UTX) (setting [6]), above 10 µM. Further, the IC50 on KDM6A (UTX) (setting [7]) was above 10 µM; on KDM2B (FBXL10) (setting [8]) it was 0.703 µM.
On to `CCc1cnc(CNCc2cc(C(=O)O)cc(C)n2)n1Cc1ccc(F)cc1` [Compound 4, 2-{[({5-ethyl-1-[(4-fluorophenyl)methyl]-1H-imidazol-2-yl}methyl)amino]methyl}-6-methylpyridine-4-carboxylic acid], for which the IC50 on KDM5B (PLU-1) (setting [1]) was above 10 µM; at KDM5B (PLU-1) (setting [2]), above 10 µM; on PHF8 (KDM7) (setting [3]), 0.234 µM; at KDM4C (JMJD2C) (setting [4]), above 10 µM; on KDM4C (JMJD2C) (setting [5]), above 10 µM; at KDM6A (UTX) (setting [6]), above 10 µM. Further, the IC50 at KDM6A (UTX) (setting [7]) is above 10 µM; at KDM2B (FBXL10) (setting [8]), 0.03 µM.
For `CCc1nnc(CNCc2cc(C(=O)O)cc(C)n2)n1Cc1ccc(F)cc1` [Compound 27, 2-{[({5-Ethyl-4-[(4-fluorophenyl)methyl]-4H-1,2,4-triazol-3-yl}methyl)amino]methyl}-6-methylpyridine-4-carboxylic acid], the IC50 was above 10 µM at KDM5B (PLU-1) (setting [1]); above 10 µM on KDM5B (PLU-1) (setting [2]); 0.537 µM at PHF8 (KDM7) (setting [3]); above 10 µM at KDM4C (JMJD2C) (setting [4]); above 10 µM at KDM4C (JMJD2C) (setting [5]); above 10 µM on KDM6A (UTX) (setting [6]). Moreover, the IC50 at KDM6A (UTX) (setting [7]) is above 10 µM; at KDM2B (FBXL10) (setting [8]), 0.158 µM.
As for `CCCCc1cccnc1CCNCc1cc(C(=O)O)cc(C)n1` [Compound 15, 2-({[2-(3-butylpyridin-2-yl)ethyl]amino}methyl)-6-methylpyridine-4-carboxylic acid], the IC50 was above 10 µM at KDM5B (PLU-1) (setting [1]); above 10 µM on KDM5B (PLU-1) (setting [2]); above 6 µM on PHF8 (KDM7) (setting [9]); above 6 µM at PHF8 (KDM7) (setting [3]); above 10 µM at KDM4C (JMJD2C) (setting [4]); above 10 µM at KDM4C (JMJD2C) (setting [5]). Further, the IC50 at KDM6A (UTX) (setting [6]) was above 10 µM; at KDM6A (UTX) (setting [7]), above 10 µM; on KDM2B (FBXL10) (setting [8]), 5.68 µM.
For the compound `CC#Cc1cc(C(=O)O)cc(CNCc2nccn2Cc2ccc(F)cc2)n1` [Compound 6, 2-{[({1-[(4-fluorophenyl)methyl]-1H-imidazol-2-yl}methyl)amino]methyl}-6-(prop-1-yn-1-yl)pyridine-4-carboxylic acid], the IC50 at KDM5B (PLU-1) is 3.35 µM; on PHF8 (KDM7) (setting [3]), 0.353 µM; at KDM4C (JMJD2C) (setting [4]), above 10 µM; at KDM4C (JMJD2C) (setting [5]), above 10 µM; at KDM6A (UTX) (setting [6]), above 10 µM; at KDM6A (UTX) (setting [7]) it was above 10 µM. The IC50 on KDM2B (FBXL10) (setting [8]) amounted to 0.708 µM.
For `Cc1cc(C(=O)O)cc(CNCCc2ncccc2Br)n1` [Compound 11, 2-({[2-(3-bromopyridin-2-yl)ethyl]amino}methyl)-6-methylpyridine-4-carboxylic acid], the IC50 is 5.48 µM on KDM5B (PLU-1) (setting [2]); 6.93 µM on PHF8 (KDM7) (setting [3]); above 10 µM on KDM4C (JMJD2C) (setting [4]); above 10 µM on KDM4C (JMJD2C) (setting [5]); above 10 µM on KDM6A (UTX) (setting [6]); above 10 µM on KDM6A (UTX) (setting [7]). The IC50 on KDM2B (FBXL10) (setting [8]) came to 1.54 µM.
Consider `Cc1cc(C(=O)O)cc(CN[C@H]2CCc3cccnc32)n1` [Compound 7, 2-({[(7S)-5H,6H,7H-cyclopenta[b]pyridin-7-yl]amino}methyl)-6-methylpyridine-4-carboxylic acid], for which the IC50 on KDM5B (PLU-1) (setting [2]) was 1.23 µM; on PHF8 (KDM7) (setting [9]), above 10 µM; at PHF8 (KDM7) (setting [3]) it was above 10 µM; at KDM4C (JMJD2C) (setting [4]), above 10 µM; on KDM4C (JMJD2C) (setting [5]), above 10 µM; on KDM6A (UTX) (setting [6]), above 10 µM. Moreover, the IC50 at KDM6A (UTX) (setting [7]) was above 10 µM; on KDM2B (FBXL10) (setting [8]) it was 7.1 µM.
